# Measured values: patent publication US6759547B1, “5,6,7,8-tetrahydronaphthalen-2-yl 2,6-difluoroheptatrienoic acid derivatives having serum glucose reducing activity” (Allergan, Inc., priority 2003, dated 2004)
# Key:
# [1] = test system: female diabetic db/db mice; test: serum glucose, triglyceride and thyroxine levels in db/db mice; format: in vivo
# Procedure: An assay described below tests the effect of compounds of the invention on serum glucose, tryglyceride and thyroxine levels in female 9-10 weeks old db/db mice.
# Blood samples (70 μl) were taken by orbital bleeding at 11:00 AM on day 0 (pre-treatment), day 3, and day 6. On day 7, a blood sample (700 μl) was taken at 11:00 AM and the animals were sacrificed. Glucose, triglyceride and thyroxine (T4) levels were determined on a Boehringer Manheim Hatachi Clinical Chemistry Analyzer using standard protocols provided by the manufacturer and reagents that were supplied in commercially available kits (glucose and T4; Boehringer Manheim; triglycerides: Roche Diagnostics). Seven animals were treated in each group.
# RXRβ = biological target: T1, RXRβ (Homo sapiens, UniProt P28702); test: holoreceptor transactivation assay, RXRβ; format: cell-based
# T1 construct: expressed in transfected cells
# T1 sequence (P28702 1-533): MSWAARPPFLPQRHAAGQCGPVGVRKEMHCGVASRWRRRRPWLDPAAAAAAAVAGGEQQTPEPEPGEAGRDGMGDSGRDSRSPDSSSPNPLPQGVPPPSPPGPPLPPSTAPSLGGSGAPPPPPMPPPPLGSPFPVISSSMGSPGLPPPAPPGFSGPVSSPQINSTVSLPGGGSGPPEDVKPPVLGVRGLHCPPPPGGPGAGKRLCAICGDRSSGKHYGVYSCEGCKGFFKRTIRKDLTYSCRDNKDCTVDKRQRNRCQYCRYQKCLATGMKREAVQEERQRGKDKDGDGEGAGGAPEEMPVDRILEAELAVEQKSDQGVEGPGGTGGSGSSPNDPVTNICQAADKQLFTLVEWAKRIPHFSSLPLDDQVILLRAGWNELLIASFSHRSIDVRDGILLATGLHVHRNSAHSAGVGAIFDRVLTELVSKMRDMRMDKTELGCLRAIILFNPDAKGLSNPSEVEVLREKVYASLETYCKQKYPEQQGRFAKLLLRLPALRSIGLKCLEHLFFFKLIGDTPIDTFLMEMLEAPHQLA
# Description: (§1) Particularly, the transactivation data pertaining to activation of the RAR receptors were obtained in the chimeric assay, and the transactivation data pertaining to the activation of RXR receptors were obtained in the holoreceptor assay.
# RXRα = biological target: T2, RXRα (Homo sapiens, UniProt P19793); test: holoreceptor transactivation assay, RXRα; format: cell-based; details: efficacy as a percentage compared to the standard compound
# T2 construct: expressed in transfected cells
# T2 sequence (P19793 1-462): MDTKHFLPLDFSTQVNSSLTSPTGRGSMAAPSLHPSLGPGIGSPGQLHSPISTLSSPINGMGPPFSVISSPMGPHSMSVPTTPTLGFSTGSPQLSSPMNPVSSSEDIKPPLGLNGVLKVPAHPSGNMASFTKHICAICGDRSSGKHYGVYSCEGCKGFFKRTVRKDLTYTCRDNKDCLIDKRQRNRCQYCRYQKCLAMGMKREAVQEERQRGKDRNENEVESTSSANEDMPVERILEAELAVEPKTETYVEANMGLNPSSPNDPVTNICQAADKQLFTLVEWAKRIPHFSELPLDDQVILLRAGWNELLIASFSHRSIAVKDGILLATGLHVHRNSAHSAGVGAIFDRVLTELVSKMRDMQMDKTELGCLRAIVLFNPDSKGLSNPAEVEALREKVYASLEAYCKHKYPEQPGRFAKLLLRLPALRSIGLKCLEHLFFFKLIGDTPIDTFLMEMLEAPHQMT
# Description: as §1
# [2] = female db/db mice, day 0 (pre-treatment), groups: standard compound 5 mg/kg, Compound 27 50 mg/kg
# [3] = female db/db mice, oral gavage daily, standard compound 5 mg/kg, Compound 27 50 mg/kg
smiles,measurement,setting,value
"CC(/C=C/[C@@H]1C[C@]1(C)c1ccc2c(c1)C(C)(C)CCC2(C)C)=C\C(=O)O [Standard compound, (2E,4E,1'S,2'S)-3-methyl-5-[2′-methyl-2′-(5,5,8,8-tetramethyl-5,6,7,8-tetrahydro-naphthalen-2-yl)-cyclopropyl]-penta-2,4-dienoic acid]",effect on serum thyroxine levels,"[1]; diabetic mammals (db/db mice), in words",undesirable side effect of reducing serum thyroxine levels
same,Glucose Day 0,[1]; [2],356 mg/dL
same,Triglycerides Day 0,[1]; [2],152 mg/dL
same,T4 Day 7,"[1]; female db/db mice, oral gavage daily for seven days, standard compound 5 mg/kg, Compound 27 50 mg/kg",2.6 ± 0.6 µg/dL
same,"Glucose Day 3, 3 h",[1]; [3],249 mg/dL
same,"Glucose Day 6, 3 h",[1]; [3],239 mg/dL
same,"Triglycerides Day 3, 3 h",[1]; [3],137 mg/dL
same,RXR Trans. efficacy β,RXRβ; efficacy as a percentage compared to the standard compound,100%
same,efficacy in activating RXRβ compared with RXRα and RXRγ,"RXRβ; transactivation, comparison of subtypes","approximately equally efficacious in activating the RXRα, RXRβ and RXRγ subtypes"
same,RXR Trans. efficacy α,RXRα,100%
